Columns and labels:
[1] = molecular target: GST-hASK1 (Homo sapiens (Human), UniProt Q99683); experiment: ASK1 TR-FRET assay; type: biochemical; conditions: 5 nM GST-hASK1, 100 μM ATP, 2 μM STK Substrate 3
Method: The protein kinase activity of 5 nM GST-hASK1(Life Technologies PV4011) was assayed with 100 μM ATP and 2 μM of HTRF biotinylated STK Substrate 3 (CisBio Kit 62ST3PEJ), at ambient temperature in 25 mM Hepes, pH 7.5, 50 mM NaCl, 10 mM MgCl2, 0.02% Brij-35, 1 mM DTT, and 1% DMSO.
After a 10 minute pre-incubation, ASK1 protein kinase activity was initiated by addition of 10 μL of 300 μM ATP.

[2] = molecular target: ASK1/MAP3K5 (Homo sapiens (Human), UniProt Q99683); experiment: ASK1/MAP3K5 assay by Reaction Biology Corp.; type: biochemical; conditions: 20 μM myelin basic protein (MBP), 10 μM ATP
Method: ASK1/MAP3K5 was used as the protein kinase and 20 μM of myelin basic protein (MBP) and 10 μM ATP were used as the substrate.

[3] = molecular target: ASK1 T838 auto phosphorylation in HEK-293T cells (Homo sapiens (Human), UniProt Q99683); experiment: ASK1 (AUTO PHOS T838) assay, MSD format; type: cell-based; conditions: HEK 293T cells transfected with ASK1-V5 full length plasmid, compounds 1 hr at 37° C.; read-out: IC50
Chain of ASK1 T838 auto phosphorylation in HEK-293T cells (Q99683 whole entry): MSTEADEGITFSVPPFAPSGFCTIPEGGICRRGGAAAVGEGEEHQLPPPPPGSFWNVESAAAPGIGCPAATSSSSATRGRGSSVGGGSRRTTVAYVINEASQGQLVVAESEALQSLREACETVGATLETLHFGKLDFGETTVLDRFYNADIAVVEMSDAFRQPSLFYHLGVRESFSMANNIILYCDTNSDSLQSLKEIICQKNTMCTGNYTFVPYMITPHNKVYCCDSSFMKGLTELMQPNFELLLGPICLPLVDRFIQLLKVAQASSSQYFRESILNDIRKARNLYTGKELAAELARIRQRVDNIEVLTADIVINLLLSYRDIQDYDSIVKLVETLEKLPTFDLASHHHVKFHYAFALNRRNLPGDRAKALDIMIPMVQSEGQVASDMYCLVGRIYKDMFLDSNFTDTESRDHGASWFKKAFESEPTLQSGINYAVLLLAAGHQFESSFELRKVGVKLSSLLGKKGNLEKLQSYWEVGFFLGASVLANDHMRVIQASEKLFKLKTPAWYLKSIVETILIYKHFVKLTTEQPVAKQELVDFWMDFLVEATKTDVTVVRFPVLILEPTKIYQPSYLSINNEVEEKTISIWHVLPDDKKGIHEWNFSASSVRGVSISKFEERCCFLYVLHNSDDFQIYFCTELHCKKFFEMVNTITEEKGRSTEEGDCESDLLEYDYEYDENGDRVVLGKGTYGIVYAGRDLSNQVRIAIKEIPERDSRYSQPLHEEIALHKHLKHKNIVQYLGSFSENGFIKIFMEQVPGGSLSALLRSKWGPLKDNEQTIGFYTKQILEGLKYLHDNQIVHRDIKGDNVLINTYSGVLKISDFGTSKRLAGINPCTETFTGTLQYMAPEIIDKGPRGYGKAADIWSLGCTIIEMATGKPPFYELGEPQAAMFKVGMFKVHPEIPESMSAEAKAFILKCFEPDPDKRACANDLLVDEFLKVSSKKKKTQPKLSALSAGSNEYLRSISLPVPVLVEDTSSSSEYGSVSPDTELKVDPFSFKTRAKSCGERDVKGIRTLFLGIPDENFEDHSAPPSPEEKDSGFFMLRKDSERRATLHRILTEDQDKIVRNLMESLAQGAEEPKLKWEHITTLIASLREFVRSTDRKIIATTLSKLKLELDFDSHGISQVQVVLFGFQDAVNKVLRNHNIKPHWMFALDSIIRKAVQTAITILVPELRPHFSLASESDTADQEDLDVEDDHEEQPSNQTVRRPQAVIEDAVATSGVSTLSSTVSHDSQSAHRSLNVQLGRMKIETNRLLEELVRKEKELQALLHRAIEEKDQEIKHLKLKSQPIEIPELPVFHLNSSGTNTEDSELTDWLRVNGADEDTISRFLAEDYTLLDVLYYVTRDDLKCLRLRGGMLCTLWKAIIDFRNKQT

Chain of ASK1/MAP3K5 (Q99683 whole entry): as above
Chain of GST-hASK1 (Q99683 649-946): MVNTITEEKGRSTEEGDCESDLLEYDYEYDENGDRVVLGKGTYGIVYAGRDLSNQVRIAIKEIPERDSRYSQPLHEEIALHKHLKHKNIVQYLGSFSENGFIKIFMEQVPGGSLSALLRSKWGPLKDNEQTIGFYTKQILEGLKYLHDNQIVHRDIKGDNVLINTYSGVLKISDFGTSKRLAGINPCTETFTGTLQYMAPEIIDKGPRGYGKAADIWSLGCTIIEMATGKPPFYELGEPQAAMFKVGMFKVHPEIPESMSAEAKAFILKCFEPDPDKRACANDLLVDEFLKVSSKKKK

| Structure (SMILES) | IC50 [1] [nM] | IC50 [2] [nM] | IC50 [3] [nM] |
| --- | --- | --- | --- |
| O=C1Nc2cccc(n2)-c2nncn2CCCCOc2ccc(-n3cccn3)cc21 [Example 44, 5^5-(1H-Pyrazol-1-yl)-1^4H-6-oxa-3-aza-2(2,6)-pyridina-1(3,4)-triazola-5(1,2)-benzenacyclodecaphan-4-one] | < 100 | < 100 | < 1000 |
| N#Cc1ccc2c(c1)C(=O)Nc1cccc(n1)-c1nncn1CCCCO2 [Example 20, 4-Oxo-1^4H-6-oxa-3-aza-2(2,6)-pyridina-1(3,4)-triazola-5(1,2)-benzenacyclodecaphane-5^5-carbonitrile] | < 100 | < 100 | < 1000 |
| Cc1cn(-c2ccc3c(c2)C(=O)Nc2cccc(n2)-c2nncn2[C@H](C)CCCO3)cn1 [Example 93, (R)-10-Methyl-5^5-(4-methyl-1H-imidazol-1-yl)-1^4H-6-oxa-3-aza-2(2,6)-pyridina-1(3,4)-triazola-5(1,2)-benzenacyclodecaphan-4-one] | < 100 | < 100 | < 1000 |
| O=C1Nc2cccc(n2)-c2nncn2CCCCCOc2ccc(N3CCOCC3)cc21 [Example 172, 5^5-Morpholino-1^4H-6-oxa-3-aza-2(2,6)-pyridina-1(3,4)-triazola-5(1,2)-benzenacycloundecaphan-4-one] | < 100 | < 100 | < 1000 |
| Cc1ncn(-c2ccc3c(c2)C(=O)Nc2cccc(n2)-c2nncn2CCCCO3)c1C [Example 42, 5^5-(4,5-Dimethyl-1H-imidazol-1-yl)-1^4H-6-oxa-3-aza-2(2,6)-pyridina-1(3,4)-triazola-5(1,2)-benzenacyclodecaphan-4-one] | < 100 | < 100 | < 1000 |
| Cc1ccc2c(c1)C(=O)Nc1cccc(n1)-c1nncn1CCCCO2 [Example 18, 5^5-Methyl-1^4H-6-oxa-3-aza-2(2,6)-pyridina-1(3,4)-triazola-5(1,2)-benzenacyclodecaphan-4-one] | < 100 | < 100 | < 1000 |
| Cc1nn(C)cc1-c1ccc2c(c1)C(=O)Nc1cccc(n1)-c1nncn1CCCCO2 [Example 32, 5^5-(1,3-Dimethyl-1H-pyrazol-4-yl)-1^4H-6-oxa-3-aza-2(2,6)-pyridina-1(3,4)-triazola-5(1,2)-benzenacyclodecaphan-4-one] | < 100 | < 100 | < 1000 |
| O=C1Nc2cccc(n2)-c2nncn2CCCCOc2ccc(N3CCCC(F)(F)C3)cc21 [Example 11, 5^5-(3,3-Difluoropiperidin-1-yl)-1^4H-6-oxa-3-aza-2(2,6)-pyridina-1(3,4)-triazola-5(1,2)-benzenacyclodecaphan-4-one] | < 100 | < 100 | < 1000 |
| Cn1cncc1-c1ccc2c(c1)C(=O)Nc1cccc(n1)-c1nncn1CCCCO2 [Example 29, 5^5-(1-Methyl-1H-imidazol-5-yl)-1^4H-6-oxa-3-aza-2(2,6)-pyridina-1(3,4)-triazola-5(1,2)-benzenacyclodecaphan-4-one] | < 100 | < 100 | < 1000 |
| O=C1Nc2cccc(n2)-c2nncn2CCCCOc2ccc(-c3cccnc3)cc21 [Example 26, 5^5-(Pyridin-3-yl)-1^4H-6-oxa-3-aza-2(2,6)-pyridina-1(3,4)-triazola-5(1,2)-benzenacyclodecaphan-4-one] | < 100 | < 100 | < 1000 |
| Cc1nn(C)c(C)c1-c1ccc2c(c1)C(=O)Nc1cccc(n1)-c1nncn1CCCCO2 [Example 33, 5^5-(1,3,5-Trimethyl-1H-pyrazol-4-yl)-1^4H-6-oxa-3-aza-2(2,6)-pyridina-1(3,4)-triazola-5(1,2)-benzenacyclodecaphan-4-one] | < 100 | < 100 | < 1000 |
| O=C1Nc2cccc(n2)-c2nncn2CCCCOc2ccc(N3C4CCC3COC4)cc21 [Example 5, 5^5-(3-Oxa-8-azabicyclo[3.2.1]octan-8-yl)-1^4H-6-oxa-3-aza-2(2,6)-pyridina-1(3,4)-triazola-5(1,2)-benzenacyclodecaphan-4-one] | < 100 | < 100 | < 1000 |

From patent US11168095B2, “ASK1 inhibiting agents” (BIOGEN MA INC., priority 2017, dated 2021)
